# In patent US20120040965A1, “SUBSTITUTED AZEPINO[4,3-B]INDOLES, PHARMACOLOGICAL COMPOSITION AND A METHOD FOR THE PRODUCTION AND USE THEREOF” (priority 2006, published 2012):
# How the values were obtained:
# histamine H1 receptor = target: T1, histamine H1 receptor (Homo sapiens, UniProt P35367); assay: Histamine-induced calcium streams in SK-N-SH cells, Phase 1 (H1 receptor antagonism); format: cell-based; conditions: Phase 1: compounds prevent calcium ions entry in cells by antagonistic action on H1-receptors, histamine 10 μM, read-out: pIC50 Phase 1 (converted)
# T1 construct: host or cells: SK-N-SH
# T1 sequence (P35367 whole entry): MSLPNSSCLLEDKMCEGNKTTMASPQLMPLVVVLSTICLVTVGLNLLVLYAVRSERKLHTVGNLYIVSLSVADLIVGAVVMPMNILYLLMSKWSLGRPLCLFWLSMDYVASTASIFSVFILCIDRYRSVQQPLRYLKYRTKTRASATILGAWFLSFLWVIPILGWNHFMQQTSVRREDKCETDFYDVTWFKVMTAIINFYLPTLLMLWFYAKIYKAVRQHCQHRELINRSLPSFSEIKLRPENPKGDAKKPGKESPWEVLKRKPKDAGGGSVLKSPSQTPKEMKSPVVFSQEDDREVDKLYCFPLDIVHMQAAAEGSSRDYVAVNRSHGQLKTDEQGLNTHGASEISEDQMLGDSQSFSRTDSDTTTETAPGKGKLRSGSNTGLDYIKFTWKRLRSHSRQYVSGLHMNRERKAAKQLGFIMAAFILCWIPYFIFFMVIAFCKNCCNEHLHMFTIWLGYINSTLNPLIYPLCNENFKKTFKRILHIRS
# Description: (§1) Tests of biological activity of compounds of general formula 1. In order to determine a physiological activity of the proposed compounds a focused library was compiled to include compounds of general formula 1, some of which are shown in Table 2 below. The compounds were tested as potential histamine H1 receptor antagonists, and their ability to regulate cytosolic calcium ions concentration in cells by blocking calcium channels regulated by intracellular calcium repositories was determined. Cells SK-N-SH (ATCC, USA) were grown on DMEM medium (Invitrogen, USA), containing 10% fetal calf serum (FBS) and antibiotic penicillin-streptomycin in CO2 incubator (5% CO2) until cell density was 1*10^5 cells/cm^2. The cells were removed from flask surface by reagent TrypLE Express (Invitrogen, USA), collected by centrifugation and resuspended in medium Hybridoma Serum Free Medium (HSFM, Sigma, USA) in concentration of 4*10^6 cells/ml. For measurement of cytosolic calcium concentration the cells were loaded with calcium sensitive fluorescent dye Fura 2 AM (Invitrogen, USA) by means of hatching of cells with a dye in suspension for 30 minutes at room temperature. The cells were collected by centrifugation, resuspended in HSFM, incubated in suspension for 15 minutes, collected by centrifugation, washed twice in HSFM and resuspended in HSFM in concentration of 4*10^6 cells/ml.
# (§2) Registration of calcium streams in cells was carried out using spectrofluorometer Shimadzu-RF5301PC. The cells were diluted with buffer (NaCl 0.145 M, KCl 0.0054 M, NaH2PO4 0.001 M, MgSO4 0.0008 M, CaCl2 0.0018 M, HEPES 0.03 M, D-glucose 0.0112 M pH 7.4) till concentration 1*10^5 cells/ml in measuring cuvette provided with magnetic stirrer, and fluorescence was registered using a regime of two-wave excitement (340 and 380 nm, respectively) at wavelength of emission 510 nm (F1 and F2, respectively). In 20 seconds after beginning of registration 10 mM of histamine water solution was added (final concentration is 10 μM). In another 30 seconds, after achievement of calcium cytosolic concentration peak a solution of tested compound in DMSO was added and registration was continued for 3 minutes. Serial dilutions of the compounds in dimethylsulfoxide (DMSO) were prepared for determination of their biological activity, and the effect of the concentration of compound on the calcium streams induced by histamine was determined.
# Transformation of fluorescence signal into calcium concentration was carried out by means of equation imbedded in program Super Ion Probe (Shimadzu), for which maximum of free calcium concentration by addition of digitonin (Sigma, USA) up to concentration of 0.1 mg/ml and zero calcium concentration by addition of ethylenediamine-tetraacetate (EDTA) up to concentration of 10 mM were determined. Kinetic curves of cytosolic calcium decrease after addition of tested compound compared to concentration after addition of histamine were calculated using single-phase exponential model by means of Prism 4 (GraphPad Software, Inc.) program: […]
# In Table 2 below the values corresponding to the reciprocal logarithm of EC50(−LogEC50=pEC50) for some of tested compounds of general formula 1 used as measures of these compounds activity are presented.
# [1] = test system: cytosolic calcium ions concentration in cells; assay: Histamine-induced calcium streams in SK-N-SH cells, Phase 2 (acceleration of cytosolic calcium removal); format: cell-based; conditions: Homo sapiens, Phase 2: acceleration of intraplasmatic calcium removal, histamine 10 μM, read-out: pIC50 Phase 2 (converted)
# Description: as §1, §2
# Transformation of fluorescence signal into calcium concentration was carried out by means of equation imbedded in program Super Ion Probe (Shimadzu), for which maximum of free calcium concentration by addition of digitonin (Sigma, USA) up to concentration of 0.1 mg/ml and zero calcium concentration by addition of ethylenediamine-tetraacetate (EDTA) up to concentration of 10 mM were determined. Kinetic curves of cytosolic calcium decrease after addition of tested compound compared to concentration after addition of histamine were calculated using single-phase exponential model by means of Prism 4 (GraphPad Software, Inc.) program:
# [Ca]=[Ca]max*exp(−K*T)+[Ca]min,
# wherein T means time after addition of tested compound, [Ca]max and [Ca]min correspond to maximum (peak meaning after addition of histamine) and minimum (equilibrium level to which the curve converges after addition of tested compound) concentrations of cytosolic calcium, and K means a kinetic constant of the decrease of cytosolic calcium concentration which is calculated by minimization of the least squares of deviations.
# The dependence of calculated constants of calcium decreasing (K) on the concentration of tested compound (C) was drawn up, and using this dependence by means of program Prism 4 the value of EC50 (concentration of tested compound corresponding to half-maximum increase of a kinetic constant of cytozoic calcium concentration decrease) was defined using four parametrical equation. […]
Compound,IC50 (histamine H1 receptor) [µM],IC50 [1] [µM]
"Cc1ccc2c(c1)[C@@H]1CN(C)CCC[C@H]1N2Cc1ccncc1 (relative stereo) [1.2.6(6), trans-2,9-dimethyl-6-(pyridin-4-ylmethyl)-1,2,3,4,5,5a,6,10b-octahydroazepino[4,3-b]indole]",0.2,5.01
"Cc1ccc2c(c1)[C@@H]1CN(C)CCC[C@H]1N2Cc1ccccn1 (relative stereo) [1.2.6(4), trans-2,9-dimethyl-6-(pyridin-2-ylmethyl)-1,2,3,4,5,5a,6,10b-octahydroazepino[4,3-b]indole]",0.631,1.58
Cc1ccc2c(c1)c1c(n2CCc2cccnc2)CCCN(C)C1 [1.1.5(5)],0.501,3.16
"Cc1ccc2c(c1)[C@@H]1CN(C)CCC[C@H]1N2CCc1ccccn1 (relative stereo) [1.2.5(1), trans-2,9-dimethyl-6-[2-(pyridin-2-yl)ethyl]-1,2,3,4,5,5a,6,10b-octahydroazepino[4,3-b]indole]",1,2.51
"Cc1ccc2c(c1)[C@@H]1CN(C)CCC[C@H]1N2Cc1ccccc1 (relative stereo) [1.2.6(1), trans-6-benzyl-2,9-dimethyl-1,2,3,4,5,5a,6,10b-octahydroazepino[4,3-b]indole]",0.126,0.631
"CN1CCC[C@@H]2[C@@H](C1)c1cc(-c3ccncc3)ccc1N2CCc1cccnc1 (relative stereo) [1.2.5(6), trans-2-methyl-6-[2-(pyridin-3-yl)ethyl]-9-(pyridin-4-yl)-1,2,3,4,5,5a,6,10b-octahydroazepino[4,3-b]indole]",0.251,1
"Cc1ccc2c(c1)c1c(n2CCc2ccc(C)nc2)CCCN(C)C1 [1.1.5(2), 2,9-dimethyl-6-[2-(6-methylpyridin-3-yl)ethyl]-1,2,3,4,5,6-hexahydroazepino[4,3-b]indole]",0.316,1.58
"Cc1ccc2c(c1)[C@@H]1CN(C)CCC[C@H]1N2CCc1ccncc1 (relative stereo) [1.2.5(3), trans-2,9-dimethyl-6-[2-(pyridin-4-yl)ethyl]-1,2,3,4,5,5a,6,10b-octahydroazepino[4,3-b]indole]",0.158,1
"Cc1ccc2c(c1)[C@@H]1CN(C)CCC[C@H]1N2CCc1ccc(C)nc1 (relative stereo) [1.2.5(2), trans-2,9-dimethyl-6-[2-(6-methylpyridin-3-yl)ethyl]-1,2,3,4,5,5a,6,10b-octahydroazepino[4,3-b]indole]",0.251,1
"Cc1ccc2c(c1)[C@@H]1CN(C)CCC[C@H]1N2Cc1ccc(C(=O)O)cc1 (relative stereo) [1.2.6(2), trans-4-(2,9-dimethyl-1,2,3,4,5,5a,10b-octahydroazepino[4,3-b]indol-6-ylmethyl)benzoic acid]",> 100,> 100
"Cc1ccc2[nH]c3c(c2c1)CN(C(=O)Nc1ccccc1)CCC3 [1.1.3.5(1), 2-phenylcarbamoyl-9-methyl-1,2,3,4,5,6-hexahydroazepino[4,3-b]indole]",> 100,> 100
"Cc1ccc2[nH]c3c(c2c1)CN(C)CCC3 [1.1.3.3(1), 2,9-dimethyl-1,2,3,4,5,6-hexahydroazepino[4,3-b]indole]",> 100,> 100
"Cc1ccc2[nH]c3c(c2c1)CN(S(=O)(=O)c1ccccc1)CCC3 [1.1.3.6(1), 2-phenylsulfonyl-9-methyl-1,2,3,4,5,6-hexahydroazepino[4,3-b]indole]",> 100,> 100
"CC(=O)N1c2ccc(C)cc2[C@@H]2CN(C)CCC[C@H]21 (relative stereo) [1.2.7(4), trans-6-acetyl-2,9-dimethyl-1,2,3,4,5,5a,6,10b-octahydroazepino[4,3-b]indole]",> 100,> 100
"Cc1ccc2[nH]c3c(c2c1)CN(C(=O)c1ccccc1)CCC3 [1.1.3.4(1), 2-benzoyl-9-methyl-1,2,3,4,5,6-hexahydroazepino[4,3-b]indole]",> 100,> 100
"CN1CCC[C@@H]2[C@@H](C1)c1cc(F)ccc1N2CCc1cccnc1 (relative stereo) [1.2.5(5), trans-2-methyl-6-[2-(pyridin-3-yl)ethyl]-9-fluoro-1,2,3,4,5,5a,6,10b-octahydroazepino[4,3-b]indole]",0.126,0.631
"Cc1ccc2c(c1)c1c(n2CCc2ccccn2)CCCN(C)C1 [1.1.5(1), 2,9-dimethyl-6-[2-(pyridin-2-yl)ethyl]-1,2,3,4,5,6-hexahydroazepino[4,3-b]indole]",3.16,3.16
"Cc1ccc2c(c1)c1c(n2CCc2ccncc2)CCCN(C)C1 [1.1.5(3), 2,9-dimethyl-6-[2-(pyridin-4-yl)ethyl]-1,2,3,4,5,6-hexahydroazepino[4,3-b]indole]",0.2,1.26
"Cc1ccc2c(c1)[C@@H]1CN(C)CCC[C@H]1N2C(=O)c1ccccc1 (relative stereo) [1.2.7(3), trans-6-benzoyl-2,9-dim ethyl-1,2,3,4,5,5a,6,10b-octahydroazepino[4,3-b]indole]",> 100,> 100
"Cc1ccc2c(c1)[C@@H]1CN(C)CCC[C@H]1N2Cc1cccnc1 (relative stereo) [1.2.6(5), trans-2,9-dimethyl-6-(pyridin-3-ylmethyl)-1,2,3,4,5,5a,6,10b-octahydroazepino[4,3-b]indole]",0.1,1.58
"Cc1ccc2c(c1)[C@@H]1CN(C)CCC[C@H]1N2CCc1cccnc1 (relative stereo) [1.2.5(4), trans-2,9-dimethyl-6-[2-(pyridin-3-yl)ethyl]-1,2,3,4,5,5a,6,10b-octahydroazepino[4,3-b]indole]",0.158,2.51
"Cc1ccc2c(c1)[C@@H]1CN(C)CCC[C@H]1N2CCc1ccccc1 (relative stereo) [1.2.6(3), trans-2,9-dimethyl-6-phenethyl-1,2,3,4,5,5a,6,10b-octahydroazepino[4,3-b]indole]",0.158,2
